Compound in the test “AZD6482 + Foretinib”: Cc1cc([C@@H](C)Nc2ccccc2C(=O)O)c2nc(N3CCOCC3)cc(=O)n2c1 [AZD6482] + COc1cc2c(Oc3ccc(NC(=O)C4(C(=O)Nc5ccc(F)cc5)CC4)cc3F)ccnc2cc1OCCCN1CCOCC1 [Foretinib] (partner 0.25 µM)
The experiment in a line: relative viability (nuclei count vs DMSO), 5 days (fraction); higher = more cells survive. The procedure, abridged:
(§1)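 A single step with final 0.05% Triton X-100, 1% formaldehyde and 1 ug/ml Hoechst fixed the cells and stained nuclei 5 days after treatment. Lung cancer cell lines in 1536-well plates had been treated by pin tool the day after seeding with one drug alone or a fixed anchor-drug dose plus five library-drug doses (not always all listed) in √10 steps, and nuclei were counted on 4× images. Relative viability is the ratio of nuclei in treated wells to nuclei in vehicle wells, taken as the median of duplicate plates.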

Compound in test [1]: COc1cc2nc(N3CCCN(C)CC3)nc(NC3CCN(Cc4ccccc4)CC3)c2cc1OC + CC1(C)CCC(c2ccc(Cl)cc2)=C(CN2CCN(c3ccc(C(=O)NS(=O)(=O)c4ccc(N[C@H](CCN5CCOCC5)CSc5ccccc5)c(S(=O)(=O)C(F)(F)F)c4)cc3)CC2)C1 [Navitoclax] (partner 0.5 µM)
The test is described as above. Summed up: as §1

As to NCI-H1755, the relative viability with AZD6482 + Foretinib (first compound 0.08 µM) came to 0.807; with AZD6482 + Foretinib (first compound 0.253 µM), 0.834; in the test with AZD6482 + Foretinib (first compound 0.8 µM), 0.851; with AZD6482 + Foretinib (first compound 2.53 µM) it was 0.669; with AZD6482 + Foretinib (first compound 8 µM), 0.603; in test [1] (first compound 0.2 µM) it was 0.995. The relative viability turned out to be 0.972 in test [1] (first compound 0.6325 µM), 0.951 in test [1] (first compound 2 µM) and 0.968 in test [1] (first compound 6.325 µM).
Take HARA: the relative viability amounted to 0.811 with AZD6482 + Foretinib (first compound 0.08 µM); 0.809 with AZD6482 + Foretinib (first compound 0.253 µM); 0.889 with AZD6482 + Foretinib (first compound 0.8 µM); 0.663 with AZD6482 + Foretinib (first compound 2.53 µM); 0.61 with AZD6482 + Foretinib (first compound 8 µM); 1.13 in test [1] (first compound 0.2 µM). Further, the relative viability in test [1] (first compound 0.6325 µM) turned out to be 1.08; in test [1] (first compound 2 µM), 1.24; in test [1] (first compound 6.325 µM) it was 1.15.
Take NCI-H596: the relative viability with AZD6482 + Foretinib (first compound 0.08 µM) stood at 0.84; with AZD6482 + Foretinib (first compound 0.253 µM), 0.853; in the test with AZD6482 + Foretinib (first compound 0.8 µM) it was 0.766; with AZD6482 + Foretinib (first compound 2.53 µM), 0.635; in the test with AZD6482 + Foretinib (first compound 8 µM), 0.599; in test [1] (first compound 0.2 µM), 1.03. Besides, the relative viability was found to be 0.851 in test [1] (first compound 0.6325 µM), 0.949 in test [1] (first compound 2 µM) and 0.821 in test [1] (first compound 6.325 µM).
Take NCI-H23: the relative viability with AZD6482 + Foretinib (first compound 0.08 µM) worked out at 0.976; with AZD6482 + Foretinib (first compound 0.253 µM), 0.856; with AZD6482 + Foretinib (first compound 0.8 µM), 0.922; with AZD6482 + Foretinib (first compound 2.53 µM), 0.639; with AZD6482 + Foretinib (first compound 8 µM) it was 0.5; in test [1] (first compound 0.2 µM), 0.757. Further, the relative viability in test [1] (first compound 0.6325 µM) was determined as 0.882; in test [1] (first compound 2 µM), 1.02; in test [1] (first compound 6.325 µM), 0.722.
As for A549, the relative viability with AZD6482 + Foretinib (first compound 0.08 µM) was found to be 0.898; with AZD6482 + Foretinib (first compound 0.253 µM), 0.842; with AZD6482 + Foretinib (first compound 0.8 µM) it was 0.979; with AZD6482 + Foretinib (first compound 2.53 µM), 0.596; with AZD6482 + Foretinib (first compound 8 µM), 0.743; in test [1] (first compound 0.2 µM), 1.24. Besides, the relative viability came to 1.13 in test [1] (first compound 0.6325 µM), 1.14 in test [1] (first compound 2 µM) and 1.06 in test [1] (first compound 6.325 µM).
With LCLC-97TM1, the relative viability with AZD6482 + Foretinib (first compound 0.08 µM) was determined as 0.854; with AZD6482 + Foretinib (first compound 0.253 µM), 0.778; with AZD6482 + Foretinib (first compound 0.8 µM) it was 0.823; with AZD6482 + Foretinib (first compound 2.53 µM) it was 0.595; with AZD6482 + Foretinib (first compound 8 µM) it was 0.596; in test [1] (first compound 0.2 µM), 0.37. Further, the relative viability is 0.34 in test [1] (first compound 2 µM) and 0.444 in test [1] (first compound 6.325 µM).
Consider EPLC-272H, for which the relative viability in the test with AZD6482 + Foretinib (first compound 0.08 µM) was determined as 0.621; with AZD6482 + Foretinib (first compound 0.253 µM) it was 0.426; with AZD6482 + Foretinib (first compound 0.8 µM), 0.506; with AZD6482 + Foretinib (first compound 2.53 µM) it was 0.378; with AZD6482 + Foretinib (first compound 8 µM), 0.256; in test [1] (first compound 0.2 µM) it was 1.08. In addition, the results for the relative viability in test [1] (first compound 0.6325 µM), in test [1] (first compound 2 µM) and in test [1] (first compound 6.325 µM) were 1.06, 1.22 and 1.02, respectively.
NCI-H1915: the relative viability in the test with AZD6482 + Foretinib (first compound 0.08 µM) turned out to be 1.05; with AZD6482 + Foretinib (first compound 0.253 µM) it was 1.02; with AZD6482 + Foretinib (first compound 0.8 µM) it was 1.1; in the test with AZD6482 + Foretinib (first compound 2.53 µM), 1; with AZD6482 + Foretinib (first compound 8 µM) it was 1.09; in test [1] (first compound 0.2 µM), 0.805. In addition, the relative viability in test [1] (first compound 0.6325 µM) came out at 0.772; in test [1] (first compound 2 µM), 0.843; in test [1] (first compound 6.325 µM), 0.797.
Consider NCI-H2405, for which the relative viability with AZD6482 + Foretinib (first compound 0.08 µM) came to 0.642; with AZD6482 + Foretinib (first compound 0.8 µM), 0.968; in the test with AZD6482 + Foretinib (first compound 2.53 µM), 0.608; with AZD6482 + Foretinib (first compound 8 µM), 0.57; in test [1] (first compound 0.2 µM), 0.829; in test [1] (first compound 0.6325 µM), 0.826. Further, the relative viability is 0.84 in test [1] (first compound 2 µM) and 0.728 in test [1] (first compound 6.325 µM).
As to NCI-H322M, the relative viability with AZD6482 + Foretinib (first compound 0.08 µM) came to 0.823; with AZD6482 + Foretinib (first compound 0.253 µM) it was 0.847; in the test with AZD6482 + Foretinib (first compound 0.8 µM), 0.897; with AZD6482 + Foretinib (first compound 2.53 µM) it was 0.543; with AZD6482 + Foretinib (first compound 8 µM) it was 0.738; in test [1] (first compound 0.2 µM), 1.12. Further, the figures for the relative viability in test [1] (first compound 0.6325 µM), in test [1] (first compound 2 µM) and in test [1] (first compound 6.325 µM) were 1.12, 1.19 and 1.21, respectively.
On to NCI-H2170, for which the relative viability came to 0.977 with AZD6482 + Foretinib (first compound 0.08 µM); 1 with AZD6482 + Foretinib (first compound 0.253 µM); 0.955 with AZD6482 + Foretinib (first compound 0.8 µM); 0.922 with AZD6482 + Foretinib (first compound 2.53 µM); 0.785 in the test with AZD6482 + Foretinib (first compound 8 µM); 0.707 in test [1] (first compound 0.2 µM). Besides, the relative viability came to 0.577 in test [1] (first compound 0.6325 µM), 0.494 in test [1] (first compound 2 µM) and 0.582 in test [1] (first compound 6.325 µM).
On to NCI-H1395, for which the relative viability came out at 0.757 in the test with AZD6482 + Foretinib (first compound 0.08 µM); 0.663 with AZD6482 + Foretinib (first compound 0.253 µM); 0.687 with AZD6482 + Foretinib (first compound 0.8 µM); 0.518 with AZD6482 + Foretinib (first compound 2.53 µM); 0.555 with AZD6482 + Foretinib (first compound 8 µM); 1.18 in test [1] (first compound 0.2 µM). Moreover, the relative viability in test [1] (first compound 0.6325 µM) was determined as 1.32; in test [1] (first compound 2 µM), 1.17; in test [1] (first compound 6.325 µM), 1.05.
For the cell line IA-LM, the relative viability amounted to 1.18 with AZD6482 + Foretinib (first compound 0.08 µM); 1.2 with AZD6482 + Foretinib (first compound 0.253 µM); 1.52 with AZD6482 + Foretinib (first compound 0.8 µM); 1.09 with AZD6482 + Foretinib (first compound 8 µM); 0.761 in test [1] (first compound 0.2 µM); 0.689 in test [1] (first compound 0.6325 µM). Further, the relative viability in test [1] (first compound 2 µM) worked out at 1.01; in test [1] (first compound 6.325 µM), 0.64.
As to NCI-H838, the relative viability in the test with AZD6482 + Foretinib (first compound 0.08 µM) is 0.855; in the test with AZD6482 + Foretinib (first compound 0.253 µM), 0.964; with AZD6482 + Foretinib (first compound 0.8 µM), 0.873; in the test with AZD6482 + Foretinib (first compound 2.53 µM) it was 0.581; in the test with AZD6482 + Foretinib (first compound 8 µM), 0.469; in test [1] (first compound 0.2 µM), 1.17. In addition, the relative viability in test [1] (first compound 0.6325 µM) is 1.13; in test [1] (first compound 2 µM) it was 1.27; in test [1] (first compound 6.325 µM), 1.08.
For the cell line CAL-12T, the relative viability with AZD6482 + Foretinib (first compound 0.08 µM) worked out at 1.11; in the test with AZD6482 + Foretinib (first compound 0.253 µM), 1.22; with AZD6482 + Foretinib (first compound 0.8 µM), 1.2; in the test with AZD6482 + Foretinib (first compound 2.53 µM), 0.792; with AZD6482 + Foretinib (first compound 8 µM), 1; in test [1] (first compound 0.2 µM) it was 1.28. The relative viability in test [1] (first compound 0.6325 µM) is 1.23; in test [1] (first compound 2 µM), 1.27; in test [1] (first compound 6.325 µM) it was 1.19.
With EBC-1, the relative viability in the test with AZD6482 + Foretinib (first compound 0.08 µM) was 0.102; with AZD6482 + Foretinib (first compound 0.253 µM) it was 0.104; with AZD6482 + Foretinib (first compound 0.8 µM) it was 0.124; with AZD6482 + Foretinib (first compound 2.53 µM), 0.0931; with AZD6482 + Foretinib (first compound 8 µM), 0.115; in test [1] (first compound 0.2 µM), 0.408. For the same cell line, the relative viability in test [1] (first compound 0.6325 µM) was determined as 0.386; in test [1] (first compound 2 µM) it was 0.382; in test [1] (first compound 6.325 µM), 0.165.

Values taken from the supplement of paper PMC10307832.
